Assay results: patent US20050203124A1, “Compounds for the sustained reduction of body weight” (Boehringer Ingelheim International GmbH, priority 2004, published 2005)

Assay: Clinical studies: monitoring of body weight (vital sign) under multiple ascending doses
Type: in vivo, patients
From the text: Clinical Studies have been carried out in order to compare the maintenance doses of the compounds of formula IA, including its metabolite IB, that were used in 3 studies.
The studies were randomized, double-blind, placebo-controlled per ascending dose group. The studies were designed to assess the safety, tolerability, phamacokinetics (PK), and preliminary efficacy of multiple ascending doses of the compound of formula IA in patients with possible Alzheimer's Disease (AD).
Two studies were performed consecutively with 0.125/0.25 and 0.5/1.0 mg of the compound of formula IA daily every morning to assess the safety and preliminary efficacy of multiple given for 28 days in those patients. After the completion of the first two studies a […] was initiated in elderly volunteers in order to investigate the safety and PK of a median dose of 0.75 mg of the compound of formula IA daily in the morning than were used in the first two studies. Depending on the maintenance dose an at least double loading dose was administrated for up to 6 days.
To determine the safety, tolerability of ascending multiple doses of the compound of formula IA (5 dose levels) given for 28 days, and to determine the preliminary multiple dose (4-week) pharmacokinetics (PK) of the compound of formula IA. […]

CCOC[C@H]1C2CCC(C[C@@H]1c1ccc(Cl)c(Cl)c1)N2C (some centres unmarked) [Compound of formula IA]
body weight under treatment (change in weight, FIGS. 3 and 4) (patients with possible Alzheimer's Disease / elderly volunteers, aged 55 to 80, 0.125 to 1.0 mg daily for 28 days, placebo-controlled): clearly reduces the bodyweight | body weight after the treatment has been stopped (change in weight, FIGS. 5 and 6) (same studies, follow-up 56 to 70 days after beginning of the 28-day treatment): still further reduced
